# According to US11505797B2, “Gene knockout of variant NRF2 for treatment of cancer” (Christiana Care Health Services, Inc., priority 2019, dated 2022):
# Entries after “also recorded” stand apart in the source; their conditions may differ.
# Tests used:
# [1] = system: NRF2 knockout A549 cells (2-11); experiment: MTS cell proliferation assay, NRF2 knockout A549 cells (2-11); type: cell-based, human
# Method: (§1) Cell viability was evaluated using the CellTiter 96 Aqueous Non-Radioactive Cell Proliferation Assay (Promega, Madison, Wis.). A549 cell lines were plated at 2×10^3 cells per well and allowed to culture for 24 hours. The cell media was then aspirated, the cells washed with PBS, then exposed to the MTS reagent for 3 hours. After 3 hours of MTS bio-reduction by proliferating cells, the formazan product's absorbance was measured using a 450 nm filter on an Infinite 2000 PRO microplate reader (Tecan, Mannadorf, Switzerland). Cell viability after drug exposure was evaluated using the CellTiter 96 Aqueous Non-Radioactive Cell Proliferation Assay. A549 cell lines were plated at 2×10^3 cells per well and allowed to culture for 24 hours. The cells were then treated with cisplatin, carboplatin, or a combination of cisplatin and vinorelbine for three days. The cell media was then aspirated, the cells washed with PBS, then exposed to the MTS reagent for 3 hours. After 3 hours of MTS bio-reduction by proliferating cells, the formazan product's absorbance was measured using a 450 nm filter on an Infinite 2000 PRO microplate reader.
# [2] = system: A549 Neh2 KO clones 1-17, 2-16, 2-23; experiment: MTS assay of A549 Neh2 KO clones treated with cisplatin; type: cell-based, human; conditions: 1, 2, 3, 5, 10 uM cisplatin
# Excerpt: The lung adenocarcinoma-derived cell line, A549, was used transfected with CRISPR/Cas9 designed to target exon 2 of NRF2 to create individual clones with random indel patterns. A total of three clones, 1-17, 2-16, and 2-23, were isolated and expanded. All three clones were collected for genomic DNA isolation and sanger sequencing to confirm the indels present. The DECODR program was used to deconvolute the sanger sequencing of each clone. The A549 cell line is polyploid and therefore, these clones contain 3 alleles of the NRF2 gene. Clone 1-17 contains −2, −2, −13 base pair deletions. Clone 2-16 contains a −1 base pair deletion across all alleles. Clone 2-23 contains two wildtype alleles and a −2 base pair deletion. A cell proliferation assay was used to assess the functionality of NRF2 after CRISPR targeting in combination with cisplatin treatment. […] Absorbance values for each clone and concentration were normalized by dividing the absorbance by the absorbance of each control well (0 μM). Normalized values for each clone at each concentration were then averaged across and standard error of the mean was calculated. […]
# Several A549 NRF2 knockout clones were created and used for dose curves with Cisplatin and Carboplatin (0-10 uM concentration). […] These genomic profiles were analyzed by TIDE and DECODR. […]
# [3] = system: NRF2 knockout A549 (2-11) tumors; experiment: Xenograft mouse model, NRF2 knockout A549 (2-11) tumors; type: in vivo, athymic nude mice; conditions: cisplatin 2 mg/kg
# Method: (§2) The human xenograft model was established using methodology reported previously. Kellar et al., Biomed Res. Int. […] Female athymic nude mice (Envigo, 5-6 weeks old) were used in this study. Approximately 5×10^6 cells (wild type A549 or homozygous knockout (clonal expansion 2-11)) suspended in PBS with 20% Matrigel were injected subcutaneously into right flank of each mouse. Tumor volume was measured three times a week with a digital caliper once palpable, and calculated using the formula, tumor size=ab^2/2, where ‘a’ is the larger and ‘b’ is the smaller of the two dimensions. When tumors grew up to a mean volume of around 100 mm^3, A549 tumor bearing mice or A549-2-11 tumor bearing mice were randomly divided into 7 groups (N=5 for each group) respectively and subject to dose/regimen-finding study. […] Tumor volume and body weight was closely monitored over time. After 16 days, the animals were sacrificed, with tumor removed, weighed and processed for molecular analysis. Mice were euthanized. The data were expressed as mean±SD. Student's t-test and one-way or two-way ANOVA was used to assess the significance of difference. A P value<0.05 was considered significant.
# (§3) A549 xenografts were resected on day 16, snap frozen in liquid nitrogen and stored in −80° C. until usage. All immunofluorescence staining was performed as previously described. Wang et al., Investig. Opthalmology Vis. […] Briefly, tumors were embedded in Optimum Cutting Temperature (Tissue Tek, Torrance, Calif., USA) and 16-μm-thick sections were obtained with a Leica CM3050 cryostat (Leica Microsystems, Buffalo Grove, Ill., USA), and mounted on slides. Slides were fixed and incubated with blocking buffer for 1 hour at room temperature. […] Sections were washed in PBS, then mounted with SlowFade Gold antifade mountant with DAPI (Invitrogen, Carlsbad, Calif., USA). Images were obtained with a Zeiss Observer.Z1 microscope (Carl Zeiss, Inc., Gottingen, Germany). The TUNEL assay was conducted with In Situ Cell Death Detection Kit, Fluorescein (Roche, Base, Switzerland), following the manufacturer's instructions. […]
# wild type A549 tumors = experiment: Xenograft mouse model, wild type A549 tumors; type: in vivo, athymic nude mice; conditions: for tumor growth over 16 days: tail vein day 0, 3, 6, 9, cisplatin 2 mg/kg, cisplatin 5 mg/kg + vinorelbine 5 mg/kg, carboplatin 25 mg/kg
# Method: as §2, §3
# wild type A549 cells = experiment: MTS cell proliferation assay, wild type A549 cells; type: cell-based, human
# Method: as §1
# wildtype NRF2 sequence = experiment: In vitro cleavage reaction, wildtype NRF2 amplicons; type: biochemical, human; conditions: A549 or H1703 parental amplicons, 0.5-5 pmol RNP, gel electrophoresis
# Method: (§4) As proof of concept, an in vitro cleavage reaction was conducted to assess the level of discrimination using the R34G guide RNA in a ribonucleoprotein complex (RNP). The in vitro cleavage reaction encompasses complexing target specific-guide RNA with Cas9 protein to form a ribonucleoprotein (RNP). The RNP is incubated with DNA of interest (100 ng) and the reaction and cleavage products are visualized by gel electrophoresis. For this experiment, wildtype and R34G-mutated NRF2 PCR products (901 bp) from an NRF2 expression plasmid (FIG. 21) were incubated with R34G-targeting RNP complex (1 μM) and cleavage products were visualized by gel electrophoresis, shown in FIG. 22.
# Once the sequences were verified, genomic DNA from each cell line was used to amplify exon 2 of NRF2. The PCR products (530 bp) from each cell line were then used in in vitro cleavage reactions under various parameters to test specificity and fidelity of the R34G-targeting RNP. For these cleavage reactions, expected cleavage products would appear at 385 and 145 bp as indicated by the red lines along the ladder, with uncut product appearing at 530 bp. FIG. 24 depicts the gel image from an in vitro cleavage reaction using wildtype NRF2 sequence from parental A549 cells and R34G-mutated NRF2 sequence from the A549 R34G-6 cells. […]
# [4] = system: R34G-mutated NRF2 sequence; experiment: In vitro cleavage reaction, R34G-mutated NRF2 amplicons; type: biochemical, human; conditions: A549 R34G-6 amplicon, 0.5-5 pmol RNP, gel electrophoresis
# Method: as §4
# Once the sequences were verified, genomic DNA from each cell line was used to amplify exon 2 of NRF2. The PCR products (530 bp) from each cell line were then used in in vitro cleavage reactions under various parameters to test specificity and fidelity of the R34G-targeting RNP. For these cleavage reactions, expected cleavage products would appear at 385 and 145 bp as indicated by the red lines along the ladder, with uncut product appearing at 530 bp. FIG. 24 depicts the gel image from an in vitro cleavage reaction using wildtype NRF2 sequence from parental A549 cells and R34G-mutated NRF2 sequence from the A549 R34G-6 cells. An increasing concentration (0.5-5 pmol) of R34G-targeting RNP was used to determine the threshold and fidelity of the sequence. […] Uncut product (top band, 530 bp) can still be seen in lanes 7-10, which corresponds to the heterozygosity of the R34G mutation in the A549 R34G-6 cell line. Therefore, the wildtype NRF2 allele in the A549 R34G-6 cell line acts as an internal negative control.
# Another in vitro cleavage reaction was conducted to assess the cleavage efficiency of the wildtype NRF2 sequence to ensure the R34G-targeting RNP was, in fact, not cleaving the wildtype NRF2 sequence because of the lack of the R34G mutation. A guide RNA with a cut site 29 bp upstream (labeled Neh2 RNP) from the R34G RNP cut site was selected and used as a positive cleavage control. […] Lanes 1-8 were reactions using wildtype NRF2 sequence while lanes 9-16 were reactions using R34G-mutated NRF2 sequence. In lanes 2-4 and 10-12, PCR products were incubated with increasing concentrations (1, 3 & 5 pmol) of RNP targeting the beginning of exon 2 (Neh2 RNP). The Neh2 guide RNA sequence is: 5′ […] 3′ (SEQ ID NO:13) which is a native CRISPR site and used as the positive control for cleavage for these reactions. […] In lanes 6-8 and 14-16, PCR products were incubated with increasing concentrations (1, 3 & 5 pmol) of R34G-targeting RNP. […] This further reinforces the specificity of the R34G-targeting RNP only recognizing the target DNA in the presence of the R34G mutation in exon 2 of NRF2. […]
Molecule,"cisplatin concentration with loss of proliferation ([1]; 2-11 knockout A549, 72 hours) [µM]","chemosensitivity (MTS cell proliferation) ([1]; 2-11 knockout A549, increasing dosages, 72 hours)","sensitivity to cisplatin (MTS), clones 1-17 and 2-16 [2]","sensitivity to cisplatin (MTS), clone 2-23 ([2]; two wildtype alleles and -2 bp deletion)",Ki67 staining of xenograft tumors ([3]; day 16),"tumor growth over 16 days ([3]; tail vein day 0, 3, 6, 9, cisplatin 5 mg/kg + vinorelbine 5 mg/kg, carboplatin 25 mg/kg)","Ki67 staining of xenograft tumors (wild type A549 tumors; cisplatin 2 mg/kg versus saline, day 16)",tumor growth over 16 days (wild type A549 tumors),tumor growth over 16 days (wild type A549 tumors; listed as Cisplatin),"cisplatin concentration at which proliferation is adversely affected (wild type A549 cells; wild type A549, 72 hours) [µM]","chemosensitivity (MTS cell proliferation) (wild type A549 cells; wild type A549, increasing dosages, 72 hours)",cleavage of wildtype NRF2 amplicon (530 bp) (wildtype NRF2 sequence),cleavage of R34G-mutated NRF2 amplicon (530 bp) [4]
N.N.[Cl][Pt][Cl] [cisplatin],≥ 1,heightened sensitivity,relatively the same trend of sensitivity,even higher resistance than the wildtype cells,substantially lower,"proliferation of the implanted cells is arrested, and the tumor size is maintained at the same level; also recorded: smallest tumors; also recorded: significant reduction in tumor cell proliferation",no difference in Ki67 levels,proliferate aggressively,not inhibited by the drug,≥ 5,resistant to high dosages of Cisplatin,,
5′ TGGATTTGATTGACATACTTTGG 3′ [Neh2 RNP],,,,,,,,,,,,can be seen in both wildtype and R34G-mutated NRF2 sequences,can be seen in both wildtype and R34G-mutated NRF2 sequences
